Literature values, collected in patent US20220184007A1, “FORMULATIONS” (Synchroneuron Inc., priority 2019, published 2022).

Experiments:
[1] = test system: psychogenic nonepileptic seizures; settings: flexible-dose, 12 weeks, 33 subjects, statistically underpowered
[2] = test system: psychogenic nonepileptic seizures; settings: flexible-dose, open-label, uncontrolled study

Compound | biweekly event frequency change [1] | event reduction [2]
CN[C@H]1CC[C@@H](c2ccc(Cl)c(Cl)c2)c2ccccc21 [sertraline] | no difference between groups | –
COc1ccc(C(CN(C)C)C2(O)CCCCC2)cc1 (centres unmarked) [venlafaxine] | – | significant event reduction
